Structures are written as SMILES. Several values for one entry are separate records, joined by “and”; a condition that tells them apart may be missing. Equal values may be shown once.

Holding throughout (type): in vivo
In assay [1] the test system is D4428 (F266I mutant Oryza sativa HST) containing tobacco plant. As to the kind of experiment: Herbicide damage score after spraying, Example 4. To be noted: averaged across transgenic population. The method, then: (§1) In order to determine if the newly discovered mutations detailed in Example 1 confer resistance to HST inhibiting compounds when expressed in plants, GM tobacco lines were produced and tested with HST inhibiting compounds. Transgenic tobacco plants expressing the Oryza sativa HST gene with and without mutations were tested.
(§2) Populations of transgenic tobacco comprising 20-30 transgenic events per plant transformation constructs were generated as described in Example 2. These lines were clonally propagated and 1 clone per event was sprayed with 500, 100 or 50 g ai/ha of compound 1+0.2% (w/v) Genapol X080 with a spray volume of 200 L/Ha. (“g ai/ha” refers to grams of active compound per hectare).
(§3) Herbicidal damage was visually assessed across the population and a herbicide damage score given at 7 and 14 days. A score of 0 indicates no visible damage or stunting whereas a score of 100 indicates a complete death of the plant. 20 transgenic events (i.e. individual transgenic plants) from each GM tobacco line were transplanted to soil 1 week prior to spraying with HST inhibiting compounds. WT tobacco was included as a control. The mutated genes are identified in Table 16 below.
(§4) The values in Tables 17 to 23 below refer to percentage of damage to the tested plants and show the damage scores for 20 populations of plants expressing either Oryza sativa WT HST gene (SEQ ID NO. 18), the Oryza sativa HST mutated gene according to SEQ ID NO. 47, the Oryza sativa HST mutated gene according to SEQ ID NO. 48, the Oryza sativa HST mutated gene according to SEQ ID NO. 49, the Oryza sativa HST mutated gene according to SEQ ID NO. 50, or the Oryza sativa HST mutated gene according to SEQ ID NO. 51. A control population of wild-type Samsun tobacco was also assessed for herbicide damage. […] However the mutated versions of the HST gene carrying the F262I, V263A, […], or F266L mutations (SEQ ID NOs: 47, 48, 50 or 51) clearly display increased tolerance.

For assay [2], the system named is D4429 (F266L mutant Oryza sativa HST) containing tobacco plant. In words: Herbicide damage score after spraying, Example 4. To be noted: averaged across transgenic population. The method, then:
as §1, §2, §3, §4

Assay [3] concerns D4425 (F262I mutant Oryza sativa HST) containing tobacco plant. As to the kind of experiment: Herbicide damage score after spraying, Example 4. To be noted: averaged across transgenic population. The method, then: as §1, §2, §3, §4
Assay [4] relates to WT tobacco. In words: Herbicide damage score after spraying, Example 4. The settings on record: WT tobacco (Example 4), per plant. The method, then: as §1, §2, §3, §4
Assay [5] concerns D4427 (T264N mutant Oryza sativa HST) containing tobacco plant. As to the kind of experiment: Herbicide damage score after spraying, Example 4. The settings on record: for percentage of damage: D4427 OsHST V003 T264N, per event; for Average percentage damage: D4427 T264N, averaged across transgenic population. The protocol: as §1, §2, §3, §4
The test system of assay [6] is D4426 (V263A mutant Oryza sativa HST) containing tobacco plant. In words: Herbicide damage score after spraying, Example 4. The settings on record: for Average percentage damage: D4426 V263A, averaged across transgenic population. The method, then:
as §1, §2, §3, §4

In assay [7] the test system is D4424 (WT Oryza sativa HST) containing tobacco plant. As to the kind of experiment: Herbicide damage score after spraying, Example 4. To be noted: for Average percentage damage: D4424, mutation n.a., averaged across transgenic population; for tolerance to herbicide: overexpression of Oryza sativa HST gene (SEQ ID NO.18) in tobacco. The method, then:
as §1, §2, §3, §4

For assay [8], the system named is D4292 (F276I mutant Arabidopsis thaliana HST) containing tobacco plant. In words: Herbicide damage score after spraying, Example 3. To be noted: averaged across transgenic population. The method, then:
(§5) In order to determine if the newly discovered mutations detailed in Example 1 confer resistance to HST inhibiting compounds when expressed in plants, GM tobacco lines are to be produced and tested with HST inhibiting compounds. Transgenic tobacco plants expressing the Arabidopsis HST gene with and without mutations were tested.
(§6) Populations of transgenic tobacco comprising 20-30 transgenic events per plant transformation constructs were generated as described in Example 2. These lines were clonally propagated and 1 clone per event was sprayed with 500, 100 or 50 g ai/ha of compound 1+0.2% Genapol X080 with a spray volume of 200 L/Ha (“g ai/ha” refers to grams of active compound per hectare).
(§7) Herbicidal damage was visually assessed across the population and a herbicide damage score given at 7 and 14 days. A score of 0 indicates no visible damage or stunting whereas a score of 100 indicates a complete death of the plant. 20 transgenic events (i.e. individual transgenic plants) from each GM tobacco line were transplanted to soil 1 week prior to spraying with HST inhibiting compounds. WT tobacco was included as a control.
(§8) The values in Tables 8 to 14 below refer to percentage of damage to the tested plants and show the damage scores for 20 populations of plants expressing either Arabidopsis WT HST gene (SEQ ID NO. 14), the Arabidopsis HST mutated gene according to SEQ ID NO. 27, the Arabidopsis HST mutated gene according to SEQ ID NO. 28, the Arabidopsis HST mutated gene according to SEQ ID NO. 29, the Arabidopsis HST mutated gene according to SEQ ID NO. 30, or the Arabidopsis HST mutated gene according to SEQ ID NO. 31. A control population of wild-type Samsun tobacco was also assessed for herbicide damage. […] However the mutated versions of the HST gene carrying the F276I, V277A, F280I or F280L mutations (SEQ ID NOs: 27, 28, 30 or 31) clearly display increased tolerance.

Assay [9] concerns D4294 (T278N mutant Arabidopsis thaliana HST) containing tobacco plant. As to the kind of experiment: Herbicide damage score after spraying, Example 3. The settings on record: for percentage of damage: D4294 AraHST V003 T278N, per GM event; for Average percentage damage: D4294 T278N, averaged across transgenic population. The protocol: as §5, §6, §7, §8
Assay [10] has as its system D4293 (V277A mutant Arabidopsis thaliana HST) containing tobacco plant. In words: Herbicide damage score after spraying, Example 3. The settings on record: averaged across transgenic population. The method, then:
as §5, §6, §7, §8

In assay [11] the test system is D4291 (WT Arabidopsis thaliana HST) containing tobacco plant. In words: Herbicide damage score after spraying, Example 3. To be noted: for Average percentage damage: D4291, mutation n.a., averaged across transgenic population; for tolerance to herbicide: overexpression of Arabidopsis HST gene (SEQ ID NO.14) in tobacco. The protocol:
as §5, §6, §7, §8

For assay [12], the system named is WT tobacco. As to the kind of experiment: Herbicide damage score after spraying, Example 3. The settings on record: WT tobacco control, per plant. The protocol: as §5, §6, §7, §8
Assay [13] concerns D4295 (F280I mutant Arabidopsis thaliana HST) containing tobacco plant. As to the kind of experiment: Herbicide damage score after spraying, Example 3. The settings on record: averaged across transgenic population. The method, then:
as §5, §6, §7, §8

With `Cc1nn(C)c(=O)c(-c2c(F)ccc(Cl)c2CCc2ccnc(F)c2)c1O` [B5a, 4-[3-chloro-6-fluoro-2-[2-(2-fluoro-4-pyridyl)ethyl]phenyl]-5-hydroxy-2,6-dimethyl-pyridazin-3-one], the Average percentage damage came out at 75% in [1] (T2 B5a 100 gai/ha); 42% in [2] (T2 B5a 100 gai/ha); 69% in assay [3] (T2 B5a 100 gai/ha); 96% in [5] (T2 B5a 100 gai/ha); 22% in assay [6] (T2 B5a 100 gai/ha); 93% in [7] (T2 B5a 100 gai/ha). The Average percentage damage in assay [8] (T2 B5a 100 gai/ha) is 45%; in assay [9] (T2 B5a 100 gai/ha), 96%; in [10] (T2 B5a 100 gai/ha), 28%; in assay [11] (T2 B5a 100 gai/ha), 89%; in assay [13] (T2 B5a 100 gai/ha), 60%. Also, the percentage of damage was 90% and 95% in [4] (T2 B5a 100 gai/ha); 95% and 98% and 80% and 97% and 96% and 99% and 100% in [5] (T2 B5a 100 gai/ha); 90% and 96% and 95% and 97% and 98% and 85% and 80% in assay [7] (T2 B5a 100 gai/ha, D4424 pBin TMV OsHST, per event); 100% and 95% and 90% and 99% in [9] (T2 B5a 100 gai/ha); 95% and 90% and 85% in assay [12] (T2 B5a 100 gai/ha). Also, the tolerance to herbicide entry in [7] and in assay [11] was “does not increase tolerance” each time.

Take `Cc1nn(C)c(=O)c(-c2c(F)ccc(Cl)c2CCc2cnn(C)c2)c1O` [B5b, 4-[3-chloro-6-fluoro-2-[2-(1-methylpyrazol-4-yl)ethyl]phenyl]-5-hydroxy-2,6-dimethyl-pyridazin-3-one]: the Average percentage damage in assay [1] (T3 B5b 100 gai/ha) was 34%; in assay [2] (T3 B5b 100 gai/ha), 18%; in assay [3] (T3 B5b 100 gai/ha), 36%; in assay [5] (T3 B5b 100 gai/ha), 96%; in assay [6] (T3 B5b 100 gai/ha) it was 4%; in [7] (T3 B5b 100 gai/ha), 82%. Also, the Average percentage damage in assay [8] (T3 B5b 100 gai/ha) is given as 26%; in assay [9] (T3 B5b 100 gai/ha) it was 95%; in [10] (T3 B5b 100 gai/ha), 15%; in assay [11] (T3 B5b 100 gai/ha) it was 47%; in assay [13] (T3 B5b 100 gai/ha) it was 29%. The percentage of damage in [4] (T3 B5b 100 gai/ha) is 95% and 96% and 97% and 93% and 90%; in assay [5] (T3 B5b 100 gai/ha), 96% and 98% and 95% and 97% and 99% and 90%; in assay [6] (T3 B5b 100 gai/ha, D4426 OsHST V002 V263A, per event) it was 5% and 0% and 10% and 3%; in [9] (T3 B5b 100 gai/ha), 100% and 75% and 95% and 98% and 99% and 90%; in [12] (T3 B5b 100 gai/ha) it was 90% and 95%. Further, the tolerance to herbicide entry in assay [7] and in assay [11] was “does not increase tolerance” each time.

With `Cc1nc2ccc(CCc3c(Cl)ccc(F)c3-c3c(O)c(C)nn(C)c3=O)cc2o1` [B8a, 4-[3-chloro-6-fluoro-2-[2-(2-methyl-1,3-benzoxazol-6-yl)ethyl]phenyl]-5-hydroxy-2,6-dimethyl-pyridazin-3-one], the Average percentage damage is 27% in [1] (T4 B8a 50 gai/ha); 22% in [2] (T4 B8a 50 gai/ha); 28% in assay [3] (T4 B8a 50 gai/ha); 46% in [5] (T4 B8a 50 gai/ha); 14% in [6] (T4 B8a 50 gai/ha); 36% in assay [7] (T4 B8a 50 gai/ha). Further, the Average percentage damage in [8] (T4 B8a 50 gai/ha) is given as 33%; in [9] (T4 B8a 50 gai/ha), 90%; in [10] (T4 B8a 50 gai/ha) it was 16%; in assay [11] (T4 B8a 50 gai/ha), 64%; in [13] (T4 B8a 50 gai/ha), 30%. The percentage of damage in assay [4] (T4 B8a 50 gai/ha) is 95% and 96%; in assay [12] (T4 B8a 50 gai/ha), 85% and 95% and 90%. Also, the tolerance to herbicide result in assay [7] and in assay [11] was “does not increase tolerance” each time.
